The record followed here is patent publication US20260297542A1, “HERBICIDE RESISTANT PLANTS” (SYNGENTA CROP PROTECTION AG, priority 2023, published 2026).

Substitutions are numbered along the chain they refer to.

Holding throughout (experiment): E. coli hemG growth inhibition by herbicide, AtPPO1 variant
Type in all cases: cell-based
Common to all, as to conditions: read-out: percentage growth inhibition

One test concerns the target T1, AtPPO1 C516Q (Arabidopsis thaliana, UniProt P55826, C516Q).
T1 construct: expressed in transfected cells; host or cells: E. coli BL21(DE3) hemG, pET24a plasmid
T1 sequence (P55826 35-537 C516Q): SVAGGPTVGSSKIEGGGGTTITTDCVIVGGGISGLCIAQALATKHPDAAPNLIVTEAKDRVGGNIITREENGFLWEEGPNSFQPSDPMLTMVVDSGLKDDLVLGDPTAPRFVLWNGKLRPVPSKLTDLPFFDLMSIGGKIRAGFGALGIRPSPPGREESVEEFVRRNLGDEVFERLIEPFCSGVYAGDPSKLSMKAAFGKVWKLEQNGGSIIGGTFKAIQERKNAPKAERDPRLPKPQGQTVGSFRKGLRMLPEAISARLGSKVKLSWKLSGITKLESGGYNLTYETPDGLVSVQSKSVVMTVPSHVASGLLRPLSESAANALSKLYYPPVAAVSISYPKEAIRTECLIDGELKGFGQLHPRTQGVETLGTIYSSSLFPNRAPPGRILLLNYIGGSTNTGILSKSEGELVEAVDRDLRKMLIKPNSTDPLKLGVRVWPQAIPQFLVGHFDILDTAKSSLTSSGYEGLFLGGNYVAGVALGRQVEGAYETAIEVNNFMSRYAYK
The text has this: (§1) A pET24a plasmid containing a DNA sequence encoding a variant of PPO1 derived from Arabidopsis thaliana (AtPPO1), codon-optimised for expression in E. coli and under control of a T7 promoter, was synthesised by Twist Bioscience (SEQ ID NO:3). This plasmid was used as the basis of a Site Saturation Variant Library (SSVL) that substituted the codons at 352 amino acid positions for codons that encoded one of the other 19 amino acids, or removed the codon altogether, resulting in a translation product with a deletion at that position.
(§2) The SSVL was batch-transformed by electroporation into an E. coli BL21(DE3) hemG strain with the hemG gene replaced by CmR conferring resistance to chloramphenicol and spread onto LA supplemented with 50 μg/mL kanamycin, 25 μg/mL chloramphenicol and 20 μg/mL hematin. Each batch consisted of all the plasmids that contained variants at two sites.
(§3) Colonies from batch transformations were inoculated into 500 μL of Terrific broth supplemented with 50 μg/mL kanamycin, 25 μg/mL chloramphenicol and 20 μg/mL hematin in 96-deepwell blocks. Cultures were grown for 24 hours at 37° C. with shaking at 250 rpm.
(§4) Overnight cultures were centrifuged and the cell pellets resuspended with 500 μL of Terrific broth. The resuspended cultures were used at a ratio of 1:100 to inoculate a fresh 96-deepwell block containing 500 μL of Terrific broth supplemented with 0.1 mM IPTG, 50 μg/mL kanamycin, 25 μg/mL chloramphenicol and 6.25 ppm of herbicide […] or E or 0.78 ppm herbicide B or DMSO. Assay cultures were grown for 24 hours at 37° C. with shaking at 250 rpm with the OD600 being measured at 24 hours post inoculation. Strains that grew in both DMSO and herbicide were determined to be herbicide tolerant with the percentage of growth inhibition being calculated as below: […]

Another test deals with T2, AtPPO1 F214Y (Arabidopsis thaliana, UniProt P55826, F214Y).
T2 construct: expressed in transfected cells; host or cells: E. coli BL21(DE3) hemG (hemG replaced by CmR), pET24a plasmid
T2 sequence (P55826 35-537 F214Y): T1 sequence (P55826 35-537 C516Q) with F180Y, Q482C
Text: as §1, §2, §3, §4

A further test has as its target T3, AtPPO1 Y361P (Arabidopsis thaliana, UniProt P55826, Y361P).
T3 construct: expressed in transfected cells; host or cells: E. coli BL21(DE3) hemG (pET24a, T7 promoter)
T3 sequence (P55826 35-537 Y361P): T1 sequence (P55826 35-537 C516Q) with Y327P, Q482C
Text: as §1, §2, §3, §4

In a further test the target is T4, AtPPO1 Y426M (Arabidopsis thaliana, UniProt P55826, Y426M).
T4 construct: expressed in transfected cells; host or cells: E. coli BL21(DE3) hemG (pET24a, T7 promoter)
T4 sequence (P55826 35-537 Y426M): T1 sequence (P55826 35-537 C516Q) with Y392M, Q482C
Text: as §1, §2, §3, §4

In general, inhibition refers to the share of the control response that was lost under treatment. Turning to `C#CCN1C(=O)C(F)(F)Oc2cc(F)c(-n3c(=O)n(C)c(=S)n(C)c3=O)cc21` [Herbicide B, trifludimoxazin], the inhibition at 0.78 ppm at AtPPO1 C516Q came to 18%; at AtPPO1 F214Y it was 26%; on AtPPO1 Y361P, 28%; at AtPPO1 Y426M it was 7%.
As to `CCOC(=O)[C@]1(C)CC(c2cc(-n3c(=O)n(C)c(=S)n(C)c3=O)c(F)cc2Cl)=NO1` [Herbicide D, ethyl (5S)-3-[2-chloro-5-(3,5-dimethyl-2,6-dioxo-4-thioxo-1,3,5-triazinan-1-yl)-4-fluoro-phenyl]-5-methyl-4H-isoxazole-5-carboxylate], the inhibition at 6.25 ppm is 28% on AtPPO1 C516Q, 34% on AtPPO1 F214Y, 36% at AtPPO1 Y361P and 25% at AtPPO1 Y426M.
For the compound `CC(C)N(C)S(=O)(=O)NC(=O)c1cc(-n2c(=O)cc(C(F)(F)F)n(C)c2=O)c(F)cc1Cl` [Herbicide E, saflufenacil], the inhibition at 6.25 ppm is 51% at AtPPO1 C516Q, 63% at AtPPO1 F214Y, 38% at AtPPO1 Y361P and 17% on AtPPO1 Y426M.
